Reference: the supplement of paper PMC10307832

How the values were obtained:
Test in all cases: relative viability (nuclei count vs DMSO), 5 days (fraction); higher = more cells survive
NCI-H1666 = system: NCI-H1666
Outline: (§1)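 The day after seeding in 1536-well plates, lung cancer cell lines were treated by pin tool with a single drug, or with a fixed anchor-drug dose together with five library-drug doses (not always all listed) in √10 steps. After 5 days, a combined fix-and-stain solution (final 0.05% Triton X-100, 1% formaldehyde, 1 ug/ml Hoechst) was added. Nuclei counted on 4× images gave relative viability as treated counts over vehicle counts, reported as the median of duplicate plates.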

NCI-H838 = system: NCI-H838
Outline: as §1

UMC-11 = system: UMC-11
Outline: as §1

ChaGo-K-1 = system: ChaGo-K-1
Outline: as §1

NCI-H650 = system: NCI-H650
Outline: as §1

HCC-15 = system: HCC-15
Outline: as §1

LXF-289 = system: LXF-289
Outline: as §1

PC-3 [JPC-3] = system: PC-3 [JPC-3]
Outline: as §1

NCI-H322M = system: NCI-H322M
Outline: as §1

NCI-H661 = system: NCI-H661
Outline: as §1

NCI-H2087 = system: NCI-H2087
Outline: as §1

NCI-H2342 = system: NCI-H2342
Outline: as §1

NCI-H1651 = system: NCI-H1651
Outline: as §1

LK-2 = system: LK-2
Outline: as §1

NCI-H596 = system: NCI-H596
Outline: as §1

NCI-H1944 = system: NCI-H1944
Outline: as §1

LU99A = system: LU99A
Outline: as §1

BEN = system: BEN
Outline: as §1

NCI-H358 = system: NCI-H358
Outline: as §1

LC-2-ad = system: LC-2-ad
Outline: as §1

LCLC-97TM1 = system: LCLC-97TM1
Outline: as §1

HCC-78 = system: HCC-78
Outline: as §1

SK-MES-1 = system: SK-MES-1
Outline: as §1

SMILES: O=C(O)c1ccc(-c2c[nH]c3ncc(-c4ccccc4)cc23)cc1C1CCCC1 + Nc1nc2[nH]cc(CCc3ccc(C(=O)N[C@@H](CCC(=O)O)C(=O)O)cc3)c2c(=O)[nH]1 [Pemetrexed] (partner 0.2 µM)
- relative viability (NCI-H1666; first compound 0.04 µM): 0.753
- relative viability (NCI-H1666; first compound 0.1265 µM): 0.917
- relative viability (NCI-H1666; first compound 0.4 µM): 0.879
- relative viability (NCI-H1666; first compound 1.265 µM): 0.809
- relative viability (NCI-H838; first compound 0.04 µM): 0.25
- relative viability (NCI-H838; first compound 0.1265 µM): 0.265
- relative viability (NCI-H838; first compound 0.4 µM): 0.253
- relative viability (NCI-H838; first compound 1.265 µM): 0.227
- relative viability (UMC-11; first compound 0.04 µM): 0.703
- relative viability (UMC-11; first compound 0.1265 µM): 0.719
- relative viability (UMC-11; first compound 0.4 µM): 0.693
- relative viability (UMC-11; first compound 1.265 µM): 0.653
- relative viability (ChaGo-K-1; first compound 0.04 µM): 0.249
- relative viability (ChaGo-K-1; first compound 0.1265 µM): 0.255
- relative viability (ChaGo-K-1; first compound 0.4 µM): 0.265
- relative viability (ChaGo-K-1; first compound 1.265 µM): 0.264
- relative viability (NCI-H650; first compound 0.04 µM): 0.941
- relative viability (NCI-H650; first compound 0.1265 µM): 0.975
- relative viability (NCI-H650; first compound 0.4 µM): 0.873
- relative viability (NCI-H650; first compound 1.265 µM): 0.782
- relative viability (HCC-15; first compound 0.04 µM): 0.206
- relative viability (HCC-15; first compound 0.1265 µM): 0.227
- relative viability (HCC-15; first compound 0.4 µM): 0.215
- relative viability (HCC-15; first compound 1.265 µM): 0.188
- relative viability (LXF-289; first compound 0.04 µM): 0.912
- relative viability (LXF-289; first compound 0.1265 µM): 0.905
- relative viability (LXF-289; first compound 0.4 µM): 0.786
- relative viability (LXF-289; first compound 1.265 µM): 0.627
- relative viability (PC-3 [JPC-3]; first compound 0.04 µM): 1.05
- relative viability (PC-3 [JPC-3]; first compound 0.1265 µM): 1.18
- relative viability (PC-3 [JPC-3]; first compound 0.4 µM): 1.1
- relative viability (PC-3 [JPC-3]; first compound 1.265 µM): 1.03
- relative viability (NCI-H322M; first compound 0.04 µM): 0.632
- relative viability (NCI-H322M; first compound 0.1265 µM): 0.586
- relative viability (NCI-H322M; first compound 0.4 µM): 0.589
- relative viability (NCI-H322M; first compound 1.265 µM): 0.547
- relative viability (NCI-H661; first compound 0.04 µM): 0.881
- relative viability (NCI-H661; first compound 0.1265 µM): 0.918
- relative viability (NCI-H661; first compound 0.4 µM): 0.92
- relative viability (NCI-H661; first compound 1.265 µM): 0.892
- relative viability (NCI-H2087; first compound 0.04 µM): 0.576
- relative viability (NCI-H2087; first compound 0.1265 µM): 0.652
- relative viability (NCI-H2087; first compound 0.4 µM): 0.653
- relative viability (NCI-H2087; first compound 1.265 µM): 0.585
- relative viability (NCI-H2342; first compound 0.04 µM): 0.804
- relative viability (NCI-H2342; first compound 0.1265 µM): 0.816
- relative viability (NCI-H2342; first compound 0.4 µM): 0.765
- relative viability (NCI-H2342; first compound 1.265 µM): 0.74
- relative viability (NCI-H1651; first compound 0.04 µM): 0.482
- relative viability (NCI-H1651; first compound 0.1265 µM): 0.603
- relative viability (NCI-H1651; first compound 0.4 µM): 0.641
- relative viability (NCI-H1651; first compound 1.265 µM): 0.527
- relative viability (LK-2; first compound 0.04 µM): 0.172
- relative viability (LK-2; first compound 0.1265 µM): 0.344
- relative viability (LK-2; first compound 0.4 µM): 0.317
- relative viability (LK-2; first compound 1.265 µM): 0.276
- relative viability (NCI-H596; first compound 0.04 µM): 0.472
- relative viability (NCI-H596; first compound 0.1265 µM): 0.53
- relative viability (NCI-H596; first compound 0.4 µM): 0.531
- relative viability (NCI-H596; first compound 1.265 µM): 0.479
- relative viability (NCI-H1944; first compound 0.04 µM): 0.692
- relative viability (NCI-H1944; first compound 0.1265 µM): 0.799
- relative viability (NCI-H1944; first compound 0.4 µM): 0.69
- relative viability (NCI-H1944; first compound 1.265 µM): 0.565
- relative viability (LU99A; first compound 0.04 µM): 0.166
- relative viability (LU99A; first compound 0.1265 µM): 0.192
- relative viability (LU99A; first compound 0.4 µM): 0.187
- relative viability (LU99A; first compound 1.265 µM): 0.202
- relative viability (BEN; first compound 0.04 µM): 0.598
- relative viability (BEN; first compound 0.1265 µM): 0.862
- relative viability (BEN; first compound 0.4 µM): 0.792
- relative viability (BEN; first compound 1.265 µM): 0.788
- relative viability (NCI-H358; first compound 0.04 µM): 0.17
- relative viability (NCI-H358; first compound 0.1265 µM): 0.186
- relative viability (NCI-H358; first compound 0.4 µM): 0.181
- relative viability (NCI-H358; first compound 1.265 µM): 0.148
- relative viability (LC-2-ad; first compound 0.04 µM): 0.302
- relative viability (LC-2-ad; first compound 0.1265 µM): 0.272
- relative viability (LC-2-ad; first compound 0.4 µM): 0.278
- relative viability (LC-2-ad; first compound 1.265 µM): 0.261
- relative viability (LCLC-97TM1; first compound 0.04 µM): 0.196
- relative viability (LCLC-97TM1; first compound 0.1265 µM): 0.204
- relative viability (LCLC-97TM1; first compound 0.4 µM): 0.157
- relative viability (LCLC-97TM1; first compound 1.265 µM): 0.153
- relative viability (HCC-78; first compound 0.1265 µM): 0.919
- relative viability (HCC-78; first compound 0.4 µM): 0.881
- relative viability (HCC-78; first compound 1.265 µM): 0.962
- relative viability (SK-MES-1; first compound 0.04 µM): 0.959
- relative viability (SK-MES-1; first compound 0.1265 µM): 1.1
- relative viability (SK-MES-1; first compound 0.4 µM): 0.941
- relative viability (SK-MES-1; first compound 1.265 µM): 0.722
